Each structure is given as a SMILES string. pIC50: −log10 of the molar value.

The pIC50 is −log10 of the IC50, conventionally taken in molar units.

In this experiment the target is T1, Recombinant human KIF18A (1-467 His-tagged) (Homo sapiens, UniProt Q8NI77).
T1 construct: Recombinant human KIF18A (1-467 His-tagged) protein; His
T1 sequence (Q8NI77 1-467): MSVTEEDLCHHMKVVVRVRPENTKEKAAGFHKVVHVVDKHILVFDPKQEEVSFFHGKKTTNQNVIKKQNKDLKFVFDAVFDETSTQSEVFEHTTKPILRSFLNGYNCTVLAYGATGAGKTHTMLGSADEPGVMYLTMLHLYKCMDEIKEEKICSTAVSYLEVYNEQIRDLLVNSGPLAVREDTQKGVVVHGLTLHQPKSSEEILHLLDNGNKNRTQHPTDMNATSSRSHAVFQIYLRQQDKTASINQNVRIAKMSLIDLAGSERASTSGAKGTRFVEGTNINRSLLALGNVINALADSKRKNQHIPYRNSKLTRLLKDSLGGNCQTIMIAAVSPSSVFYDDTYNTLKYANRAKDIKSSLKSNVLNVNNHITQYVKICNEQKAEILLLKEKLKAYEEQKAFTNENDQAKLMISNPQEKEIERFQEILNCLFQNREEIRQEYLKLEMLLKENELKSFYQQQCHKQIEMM
T1 sequence (P02550 whole entry partner): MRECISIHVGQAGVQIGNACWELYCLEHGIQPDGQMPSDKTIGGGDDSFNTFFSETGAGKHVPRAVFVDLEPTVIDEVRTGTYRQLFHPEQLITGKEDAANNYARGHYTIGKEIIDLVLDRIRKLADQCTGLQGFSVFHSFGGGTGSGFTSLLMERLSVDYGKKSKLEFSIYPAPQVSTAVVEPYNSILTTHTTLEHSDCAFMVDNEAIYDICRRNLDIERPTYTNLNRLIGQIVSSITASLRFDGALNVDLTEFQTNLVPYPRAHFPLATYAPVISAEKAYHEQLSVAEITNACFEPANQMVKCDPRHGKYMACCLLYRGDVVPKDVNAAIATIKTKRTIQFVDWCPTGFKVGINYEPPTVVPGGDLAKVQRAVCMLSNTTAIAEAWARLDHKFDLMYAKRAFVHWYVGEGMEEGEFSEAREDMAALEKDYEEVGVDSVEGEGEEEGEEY
T1 sequence (P02554 whole entry partner): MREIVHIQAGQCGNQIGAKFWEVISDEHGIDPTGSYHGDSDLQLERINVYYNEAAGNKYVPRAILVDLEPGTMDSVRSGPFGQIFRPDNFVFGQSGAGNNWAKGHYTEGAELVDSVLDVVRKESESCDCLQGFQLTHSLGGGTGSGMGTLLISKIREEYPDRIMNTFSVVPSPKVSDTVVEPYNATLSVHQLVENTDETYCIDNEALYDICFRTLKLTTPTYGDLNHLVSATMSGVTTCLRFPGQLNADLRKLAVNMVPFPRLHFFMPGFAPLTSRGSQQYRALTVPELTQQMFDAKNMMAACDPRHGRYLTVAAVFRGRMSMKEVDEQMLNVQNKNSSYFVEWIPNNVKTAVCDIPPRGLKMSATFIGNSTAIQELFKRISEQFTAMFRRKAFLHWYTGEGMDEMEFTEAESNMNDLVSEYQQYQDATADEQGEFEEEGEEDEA
Kind of experiment: KIF18A Enzyme Assay: microtubule-stimulated ATPase activity (ADP-Glo). Format: biochemical. The settings on record: 30 nM KIF18A, 30 μg/mL pig microtubules, ATP 75 μM (Km), ADP-Glo luminescence. Here is the method:
KIF18A Enzyme Assay: Microtubule-stimulated ATPase activity assay is used to measure KIF18A enzyme activity after treatment with compound. Compounds were 2-fold serially diluted in DMSO (Sigma Inc) over 22-point concentration range. […] The assay measures ADP formed from the ATPase reaction. […] Read luminescence using EnVision microplate reader with ultra-luminescence module (Perkin Elmer Inc). Concentration-response curve-fitting and IC50 determination was performed using Genedata Screener Software (Standard 15.0.1, Genedata Inc) with a four-parameter logistic regression fit model.
(ADP-Glo turns the ADP formed in a reaction into a luminescent signal.)
On to `CC(C)(C)NS(=O)(=O)c1cccc(NC(=O)c2ccc(NS(C)(=O)=O)cc2N2CCC3(CC2)CC3)n1` [Example 7-43, N-(6-(N-(tert-Butyl)sulfamoyl)pyridin-2-yl)-4-(methylsulfonamido)-2-(6-azaspiro[2.5]octan-6-yl)benzamide], for which the pIC50 is 7.26. The value for `C[C@@H]1CN(c2nc(NC(=O)c3ccc(NS(=O)(=O)CCO)cc3N3CCC4(CC3)CC4)ccc2F)CCO1` [Example 24, (R)-N-(5-Fluoro-6-(2-methylmorpholino)pyridin-2-yl)-4-((2-hydroxyethyl)sulfonamido)-2-(6-azaspiro[2.5]octan-6-yl)benzamide] was 7.48; that for `C[C@@H]1CN(c2cccc(NC(=O)c3ccc(S(=O)(=O)NC(C)(C)C)cc3N3CCC4(CC3)CC4)n2)CCO1` [Example 1-6, (R)-4-(N-(tert-Butyl)sulfamoyl)-N-(6-(2-methylmorpholino)pyridin-2-yl)-2-(6-azaspiro[2.5]octan-6-yl)benzamide] was 7.29; that for `O=C(Nc1cccc(OCCC(F)(F)F)n1)c1ccc(S(=O)(=O)NCCO)cc1N1CCC2(CC1)CC2` [Example 1, 4-(N-(2-Hydroxyethyl)sulfamoyl)-2-(6-azaspiro[2.5]octan-6-yl)-N-(6-(3,3,3-trifluoropropoxy)pyridin-2-yl)benzamide] was 7.92. For the compound `Cc1cc(NC(=O)c2ccc(NS(=O)(=O)C3CCC3)cc2N2CCC3(CC2)CC3)nc(N2CC(F)(F)C2)c1` [Example 7-30, 4-(Cyclobutanesulfonamido)-N-(6-(3,3-difluoroazetidin-1-yl)-4-methylpyridin-2-yl)-2-(6-azaspiro[2.5]octan-6-yl)benzamide], the negative-log IC50 (pIC50) is 7.11. The value for `N=[S@@](=O)(c1ccc(C(=O)Nc2cccc(OCCC(F)(F)F)n2)c(N2CCC3(CC2)CC3)c1)C1CC1` (single isomer, unassigned) [Example 27-2, 2-(6-Azaspiro[2.5]octan-6-yl)-4-(R-cyclopropylsulfonimidoyl)-N-(6-(3,3,3-trifluoropropoxy)-2-pyridinyl)benzamide] was 7.80; that for `O=C(Nc1cncc(N2CCC(F)(F)CC2)n1)c1ccc(NS(=O)(=O)CCO)cc1N1CCC2(CC1)CC2` [Example 7-44, N-(6-(4,4-Difluoropiperidin-1-yl)pyrazin-2-yl)-4-((2-hydroxyethyl)sulfonamido)-2-(6-azaspiro[2.5]octan-6-yl)benzamide] was 7.80. The same measure for `Cc1cc(NC(=O)c2ccc(NS(=O)(=O)C3(C)CC3)cc2N2CCC3(CC2)CC3)nc(N2CC(F)(F)C2)c1` [Example 3-19, N-(6-(3,3-Difluoroazetidin-1-yl)-4-methylpyridin-2-yl)-4-((1-methylcyclopropane)-1-sulfonamido)-2-(6-azaspiro[2.5]octan-6-yl)benzamide]: 6.99. The value for `CC1(S(=O)(=O)Nc2ccc(C(=O)Nc3cccc(N4CCCCC4)n3)c(N3CCC4(CC3)CC4)c2)CC1` [Example 3-17, 4-((1-Methylcyclopropane)-1-sulfonamido)-N-(6-(piperidin-1-yl)pyridin-2-yl)-2-(6-azaspiro[2.5]octan-6-yl)benzamide] was 7.47. In the case of `Cc1cc(NC(=O)c2ccc(NS(=O)(=O)C3COC3)cc2N2CCC3(CC2)CC3)nc(N2CCC(F)(F)CC2)c1` [Example 7-11, N-(6-(4,4-Difluoropiperidin-1-yl)-4-methylpyridin-2-yl)-4-(oxetane-3-sulfonamido)-2-(6-azaspiro[2.5]octan-6-yl)benzamide], the pIC50 is 7.09. The same measure for `CC(C)(C)NS(=O)(=O)c1ccc(C(=O)Nc2cccc(N3CCO[C@H](CO)C3)n2)c(N2CCC3(CC2)CC3)c1` [Example 4-3, (S)-4-(N-(tert-Butyl)sulfamoyl)-N-(6-(2-(hydroxymethyl)morpholino)pyridin-2-yl)-2-(6-azaspiro[2.5]octan-6-yl)benzamide]: 7.07; for `C[C@@H]1CN(c2cccc(NC(=O)c3ccc(S(=N)(=O)C4CC4)cc3N3CCC4(CC3)CC4)n2)CCO1` (single isomer, unassigned) [Example 12-2]: 7.37. With `Cc1cc(NC(=O)c2ccc(NS(=O)(=O)CCO)cc2N2CCC3(CC2)CC3)nc(N2CCC(F)(F)CC2)c1` [Example 6, N-(6-(4,4-Difluoropiperidin-1-yl)-4-methylpyridin-2-yl)-4-((2-hydroxyethyl)sulfonamido)-2-(6-azaspiro[2.5]octan-6-yl)benzamide], the negative logarithm of the IC50 (pIC50) was 7.33.

With `C[C@@H]1CN(c2cccc(NC(=O)c3ccc(NS(=O)(=O)C4(CO)CC4)cc3N3CCC4(CC3)CC4)n2)CCO1` [Example 10-1, (R)-4-((1-(Hydroxymethyl)cyclopropane)-1-sulfonamido)-N-(6-(2-methylmorpholino)pyridin-2-yl)-2-(6-azaspiro[2.5]octan-6-yl) benzamide], the negative-log IC50 (pIC50) is 7.24. The same measure for `CC1(S(=O)(=O)Nc2ccc(C(=O)Nc3cccc(N4CCC(F)(F)CC4)n3)c(N3CCC4(CC3)CC4)c2)CC1` [Example 4-9, N-(6-(4,4-Difluoropiperidin-1-yl)pyridin-2-yl)-4-((1-methylcyclopropane)-1-sulfonamido)-2-(6-azaspiro[2.5]octan-6-yl)benzamide]: 7.34. As for `C[C@@H]1CN(c2cccc(NC(=O)c3ccc(NS(=O)(=O)[C@H](C)CO)cc3N3CCC4(CC3)CC4)n2)CCO1` (single isomer, unassigned) [Example 9-15], the pIC50 was 7.43. Turning to `C[C@@H]1CN(c2cccc(NC(=O)c3ccc(CS(C)(=O)=O)cc3N3CCC4(CC3)CC4)n2)CCO1` [Example 4-15, (R)-N-(6-(2-Methylmorpholino)pyridin-2-yl)-4-((methylsulfonyl)methyl)-2-(6-azaspiro[2.5]octan-6-yl)benzamide], the pIC50 was 7.07. The same measure for `CCS(=O)(=O)Nc1ccc(C(=O)Nc2cc(C)cc(N3CCO[C@H](C)C3)n2)c(N2CCC3(CC2)CC3)c1` [Example 7-8, (R)-4-(Ethylsulfonamido)-N-(4-methyl-6-(2-methylmorpholino)pyridin-2-yl)-2-(6-azaspiro[2.5]octan-6-yl)benzamide]: 7.14; for `C[C@H]1CN(c2cccc(NC(=O)c3ccc(NS(=O)(=O)[C@@H](C)CO)cc3N3CCC4(CC3)CC4)n2)CCO1` (single isomer, unassigned) [Example 9-18]: 7.44.

As to `C[C@@H]1CN(c2cccc(NC(=O)c3ccc(NS(=O)(=O)C4(F)CC4)cc3N3CCC4(CC3)CC4)n2)CCO1` [Example 7-15, (R)-4-((1-Fluorocyclopropane)-1-sulfonamido)-N-(6-(2-methylmorpholino)pyridin-2-yl)-2-(6-azaspiro[2.5]octan-6-yl)benzamide], the pIC50 was 7.05. On to `Cc1cc(NC(=O)c2ccc(NS(=O)(=O)C3CC3)cc2N2CCC3(CC2)CC3)nc(N2CCC(F)(F)CC2)c1` [Example 7-25, 4-(Cyclopropanesulfonamido)-N-(6-(4,4-difluoropiperidin-1-yl)-4-methylpyridin-2-yl)-2-(6-azaspiro[2.5]octan-6-yl)benzamide], for which the pIC50 is 7.41. The same measure for `Cc1cc(NC(=O)c2ccc(NS(=O)(=O)[C@@H](C)CO)cc2N2CCC3(CC2)CC3)nc(N2CCC(F)(F)CC2)c1` (single isomer, unassigned) [Example 9-7]: 7.57; for `CC(C)(C)NS(=O)(=O)c1ccc(C(=O)Nc2cccc(NC3(CO)COC3)n2)c(N2CCC3(CC2)CC3)c1` [Example 3-4, 4-(N-(tert-Butyl)sulfamoyl)-N-(6-((3-(hydroxymethyl)oxetan-3-yl)amino)pyridin-2-yl)-2-(6-azaspiro[2.5]octan-6-yl)benzamide]: 6.83. The same measure for `Cc1cc(NC(=O)c2ccc(NS(=O)(=O)CCO)cc2N2CCC3(CC2)CC3)nc(OCC(O)C(F)(F)F)c1` (centres unmarked) [Example 17-1, 4-((2-Hydroxyethyl)sulfonamido)-N-(4-methyl-6-(3,3,3-trifluoro-2-hydroxypropoxy)pyridin-2-yl)-2-(6-azaspiro[2.5]octan-6-yl)benzamide]: 7.17; for `C[C@@H]1CN(c2cccc(NC(=O)c3ccc(NS(=O)(=O)C(F)F)cc3N3CCC4(CC3)CC4)n2)CCO1` [Example 7-7, (R)-4-((Difluoromethyl)sulfonamido)-N-(6-(2-methylmorpholino)pyridin-2-yl)-2-(6-azaspiro[2.5]octan-6-yl)benzamide]: 7.31. The same measure for `C[C@@H]1CN(c2cc(C(F)(F)F)cc(NC(=O)c3ccc(NS(=O)(=O)CCO)cc3N3CCC4(CC3)CC4)n2)CCO1` [Example 20, (R)-4-((2-Hydroxyethyl)sulfonamido)-N-(6-(2-methylmorpholino)-4-(trifluoromethyl)pyridin-2-yl)-2-(6-azaspiro[2.5]octan-6-yl)benzamide]: 7.03; for `Cc1cc(NC(=O)c2ccc(S(=N)(=O)C3CC3)cc2N2CCC3(CC2)CC3)nc(N2CC(F)(F)C2)c1` (stereo in doubt) [Example 28-2, 2-(6-Azaspiro[2.5]octan-6-yl)-4-(R-cyclopropylsulfonimidoyl)-N-(6-(3,3-difluoro-1-azetidinyl)-4-methyl-2-pyridinyl)benzamide]: 7.43; for `Cc1cc(NC(=O)c2ccc(NS(=O)(=O)C(C)(C)C)cc2N2CCC3(CC2)CC3)nc(N2CCC(F)(F)CC2)c1` [Example 7-22, N-(6-(4,4-Difluoropiperidin-1-yl)-4-methylpyridin-2-yl)-4-((1,1-dimethylethyl)sulfonamido)-2-(6-azaspiro[2.5]octan-6-yl)benzamide]: 6.99. Consider `C[C@@H](CO)S(=O)(=O)Nc1ccc(C(=O)Nc2cccc(N3CC(F)C3)n2)c(N2CCC3(CC2)CC3)c1` (single isomer, unassigned) [Example 9-2], for which the negative-log IC50 (pIC50) was 7.33.

The values are drawn from patent US12459932B2, “KIF18A inhibitors” (AMGEN INC., priority 2018, dated 2025).
